Columns and labels:
[1] = system: PDGFR-beta phosphorylation in aortic smooth muscle cells; test: pPDGFR-beta sandwich ELISA in AoSMC cells; format: cell-based; conditions: PDGF-BB stimulated
Procedure: 100K P3-P6 Aortic SMC were plated in each well of 12-well cluster in 1000 μL volume/well of SGM-2 using standard cell culture techniques. Next day, cells were rinsed with 1000 μL D-PBS once, then serum starved in 500 μL SBM (smooth muscle cell basal media) with 0.1% BSA overnight. Compounds were diluted at a dose range from (10 μM to 1 nM in 10-fold dilution steps in DMSO. Final DMSO concentration 0.1%). Remove old media by inversion into the sink quickly then add 100 μL of each dilution to corresponding well of cells for 1 h at 37° C. Cells were then stimulated with 10 ng/mL PDGF-BB ligand for 7 min at 37° C. The media is decanted and 150 μL of isotonic lysis buffer with protease inhibitor tablet (Complete; EDTA-free) and 0.2 mM Na vanadate is added. Cells are lysed for 15 min at 4° C. on shaker in cold room. […]
Table 2 illustrates the results of two cellular assays for raf kinase activity, which are (i) inhibition of pERK in MDA-MB231 cells, a mechanistic readout of raf kinase activity, and (ii) a proliferation assay of MDA-MB231 cells, a functional assay of raf kinase activity. In addition, Table 2 illustrates the results of PDGFR driven phosphorylation of PDGFR-beta in aortic smooth muscle cells, which is a mechanistic readout of PDGFR kinase inhibition.

[2] = biological target: T1, Lck-activated c-raf (Lck/c-raf) (Homo sapiens, UniProt P04049); test: c-raf (raf-1) biochemical assay; conditions: in words
T1 construct: GST-c-raf (from amino acid 302 to amino acid 648) and Lck (full-length); made in house; host or cells: Sf9 insect cells (baculovirus, co-infected with Lck baculovirus)
Procedure: The c-raf biochemical assay was performed with a c-raf enzyme that was activated (phosphorylated) by Lck kinase. Lck-activated c-raf (Lck/c-raf) was produced in Sf9 insect cells by co-infecting cells with baculoviruses expressing, under the control of the polyhedrin promoter, GST-c-raf (from amino acid 302 to amino acid 648) and Lck (full-length). Both baculoviruses were used at the multiplicity of infection of 2.5 and the cells were harvested 48 h post infection.
MEK-1 protein was produced in Sf9 insect cells by infecting cells with the baculovirus expressing GST-MEK-1 (full-length) fusion protein at the multiplicity of infection of 5 and harvesting the cells 48 hours post infection. Similar purification procedure was used for GST-c-raf 302-648 and GST-MEK-1.
Transfected cells were suspended at 100 mg of wet cell biomass per mL in a buffer containing 10 mM sodium phosphate, 140 mM sodium chloride pH 7.3, 0.5% Triton X-100 and the protease inhibitor cocktail. […]
Test compounds were serially diluted in DMSO using three-fold dilutions to stock concentrations ranging typically from 50 μM to 20 nM (final concentrations in the assay range from 1 μM to 0.4 nM). […] The filters were dried in a microwave, soaked in scintillation fluid and read in a Wallac 1205 Betaplate Counter (Wallac Inc., Atlanta, Ga., U.S.A.). The results were expressed as percent inhibition.

[3] = biological target: T2, p38 α2 (Homo sapiens, UniProt Q16539); test: p38 kinase in vitro assay; format: biochemical; conditions: in words
T2 construct: His; made in house; host or cells: E. coli
Procedure: Purified and His-tagged p38 α2 (expressed in E. Coli) was activated in vitro by MMK-6 to a high specific activity. Using a microtiter format, all reactions were conducted in 100 μL volumes with reagents diluted to yield 0.05 μg/well of activated p38 α2 and 10 μg/well of myelin basic protein in assay buffer (25 mM HEPES 7.4, 20 mM MgCl2, 150 mM NaCl). Test compounds (5 μL of a 10% DMSO solution in water) were prepared and diluted into the assay to cover a final concentration range from 5 nM to 2.5 μM. The kinase assay was initiated by addition of 25 μL of an ATP cocktail to give a final concentration of 10 μM cold ATP and 0.2 μCi [gamma-^33P] ATP per well (200-400 dpm/pmol of ATP). The plate was incubated at 32° C. for 35 min., and the reaction quenched with 7 μL of a 1 N aq HCl solution. The samples were harvested onto a P30 Filtermat (Wallac, Inc.) using a TomTec 1295 Harvester (Wallac, Inc.), and counted in a LKB 1205 Betaplate Liquid Scintillation Counter (Wallac, Inc.). Negative controls included substrate plus ATP alone. SW1353 cellular assay: SW1353 cells (human chondro-sarcoma) are seeded (1000 cells/100 μL DMEM 10% FCS/well) into 96-well plates and incubated overnight. […] Cultures are incubated for 48 h at 37° C., then supernatant IL-6 values are determined by ELISA.

T1 sequence (P04049 302-648): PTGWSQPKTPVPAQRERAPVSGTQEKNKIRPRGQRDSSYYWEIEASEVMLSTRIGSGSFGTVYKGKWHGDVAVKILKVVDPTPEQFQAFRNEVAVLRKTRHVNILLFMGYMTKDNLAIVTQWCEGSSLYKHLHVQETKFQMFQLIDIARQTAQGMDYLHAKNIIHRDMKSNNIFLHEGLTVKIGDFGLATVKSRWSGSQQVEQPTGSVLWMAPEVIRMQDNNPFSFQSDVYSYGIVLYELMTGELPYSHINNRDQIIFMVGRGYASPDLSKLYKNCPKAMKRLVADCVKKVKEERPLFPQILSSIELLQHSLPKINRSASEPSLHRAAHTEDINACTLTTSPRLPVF
T2 sequence (Q16539 whole entry): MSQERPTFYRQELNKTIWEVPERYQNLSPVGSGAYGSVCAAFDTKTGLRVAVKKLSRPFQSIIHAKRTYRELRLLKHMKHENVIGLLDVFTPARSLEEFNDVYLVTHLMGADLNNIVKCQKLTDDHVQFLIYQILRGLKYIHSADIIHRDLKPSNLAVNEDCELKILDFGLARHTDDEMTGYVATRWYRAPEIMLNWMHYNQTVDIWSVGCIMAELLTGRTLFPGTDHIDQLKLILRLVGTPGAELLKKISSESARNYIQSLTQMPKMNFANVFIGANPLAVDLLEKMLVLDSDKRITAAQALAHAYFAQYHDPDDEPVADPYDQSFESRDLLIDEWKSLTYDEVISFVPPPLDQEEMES

CNC(=O)c1cc(Oc2ccc(NC(=O)Nc3ccc(Cl)c(C(F)(F)F)c3)c(F)c2)ccn1 [Example 1, 4{4-[3-(4-chloro-3-trifluoromethylphenyl)-ureido]-3-fluorophenoxy}-pyridine-2-carboxylic acid methylamide]
IC50 [1]: 0.0436 µM | inhibition of raf kinase [2]: potent inhibition | inhibition of p38 kinase [3]: significant inhibition

— US20130183268A1, “DRUG COMBINATIONS WITH FLUORO-SUBSTITUTED OMEGA-CARBOXYARYL DIPHENYL UREA FOR THE TREATMENT AND PREVENTION OF DISEASES AND CONDITIONS” (BAYER HEALTHCARE LLC, priority 2010, published 2013)
